Reference: US9695155B2, “Herbicidal substituted pyrimidinyloxy benzene compounds” (E. I. DU PONT DE NEMOURS AND COMPANY, priority 2013, dated 2017)

Key:
soybean = assay: Test E postemergence; assay type: in vivo, Glycine max
Excerpt: (§1) Seeds of plant species selected from corn (Zea mays), soybean (Glycine max), velvetleaf (Abutilon theophrasti), lambsquarters (Chenopodium album), wild poinsettia (Euphorbia heterophylla), palmer pigweed (Amaranthus palmeri), waterhemp (common waterhemp, Amaranthus rudis), surinam grass (Brachiaria decumbens), large (Lg) crabgrass (Digitaria sanguinalis), Brazilian crabgrass (Digitaria horizontalis), fall panicum (Panicum dichotomiflorum), giant foxtail (Setaria faberii), green foxtail (Setaria viridis), goosegrass (Eleusine indica), johnsongrass (Sorghum halepense), ragweed (common ragweed, Ambrosia elatior), barnyardgrass (Echinochloa crus-galli), sandbur (southern sandbur, Cenchrus echinatus), arrowleaf sida (Sida rhombifolia), Italian ryegrass (Lolium multiflorum), dayflower (Virginia (VA) dayflower, Commelina virginica), field bindweed (Convolvulus arvensis), morningglory (Ipomoea coccinea), nightshade (eastern black nightshade, Solanum ptycanthum), kochia (Kochia scoparia), yellow nutsedge (Cyperus esculentus), cocklebur (common cocklebur, Xanthium strumarium), smartweed (ladysthumb smartweed, and hairy beggarticks (Bidens pilosa), were planted into a silt loam soil and treated preemergence with test chemicals formulated in a non-phytotoxic solvent mixture which included a surfactant.
(§2) At the same time, plants from these crop and weed species and also horseweed (Canada horseweed, Conyza canadensis), waterhemp_RES1, (ALS & Triazine resistant common waterhemp, Amaranthus rudis), and waterhemp_RES2, (ALS & HPPD resistant common waterhemp, Amaranthus rudis) were planted in pots containing Redi-Earth® planting medium (Scotts Company, 14111 Scottslawn Road, Marysville, Ohio 43041) comprising spaghnum peat moss, vermiculite, wetting agent and starter nutrients were treated with postemergence applications of test chemicals formulated in the same manner. Plants ranged in height from 2 to 18 cm for postemergence treatments (1- to 4-leaf stage). Treated plants and controls were maintained in a greenhouse for 14 to 21 days, after which time all species were compared to controls and visually evaluated. Plant response ratings, summarized in Table E, are based on a scale of 0 to 100 where 0 is no effect and 100 is complete control. A dash (-) response means no test result.

hairy beggarticks = assay: Test E postemergence; assay type: in vivo, Bidens pilosa
Excerpt: as §1, §2

[1] = Postemergence, 31 g ai/ha, scale 0 to 100
[2] = Postemergence, 62 g ai/ha, scale 0 to 100
[3] = Postemergence, 125 g ai/ha, scale 0 to 100
[4] = postemergence, 8 g ai/ha, scale 0 to 100, 0 no effect, 100 complete control
[5] = postemergence, 16 g ai/ha, scale 0 to 100, 0 no effect, 100 complete control
[6] = Postemergence, 250 g ai/ha, scale 0 to 100

SMILES | Plant response rating, Soybean (soybean; [1]) | Plant response rating, Soybean (soybean; [2]) | Plant response rating, Soybean (soybean; [3]) | Plant response rating, Soybean (soybean; [5]) | Plant response rating, Beggarticks (hairy beggarticks; [1]) | Plant response rating, Beggarticks (hairy beggarticks; [2]) | Plant response rating, Beggarticks (hairy beggarticks; [3]) | Plant response rating, Beggarticks (hairy beggarticks; [5]) | other results
Clc1cnc(Oc2cccc(Br)c2-n2cc(Br)cn2)nc1 [Compound 65] | 20 | 50 | 98 | 20 | 40 | 50 | 50 | 35 | Plant response rating, Soybean (soybean; [4]): 15; Plant response rating, Beggarticks (hairy beggarticks; [4]): 20
Fc1cnc(Oc2ccccc2-n2cc(Br)cn2)nc1 [Compound 10, 2-[2-(4-bromo-1H-pyrazol-1-yl)phenoxy]-5-fluoropyrimidine] | – | – | – | – | – | – | – | – | plant response (crop injury) rating, soybean, 0-100 scale at 31 g/ha (soybean; Glycine max, post-emergence, Postemergence, 31 g ai/ha, scale 0 to 100): 50%; plant response (crop injury) rating, soybean, 0-100 scale at 62 g/ha (soybean; Glycine max, post-emergence, Postemergence, 62 g ai/ha, scale 0 to 100): 75%; plant response (crop injury) rating, soybean, 0-100 scale at 125 g/ha (soybean; Glycine max, post-emergence, Postemergence, 125 g ai/ha, scale 0 to 100): 90%; plant response (crop injury) rating, soybean, 0-100 scale at 250 g/ha (soybean; Glycine max, post-emergence, Postemergence, 250 g ai/ha, scale 0 to 100): 95%; plant response (crop injury) rating, soybean, 0-100 scale at 16 g/ha (soybean; Glycine max, post-emergence, postemergence, 16 g ai/ha, scale 0 to 100, 0 no effect, 100 complete control): 30%; pest or weed control at 31 g/ha (hairy beggarticks; Bidens pilosa, post-emergence, Postemergence, 31 g ai/ha, scale 0 to 100, read-out: Plant response rating, Beggarticks): 30%; pest or weed control at 62 g/ha (hairy beggarticks; Bidens pilosa, post-emergence, Postemergence, 62 g ai/ha, scale 0 to 100, read-out: Plant response rating, Beggarticks): 40%; pest or weed control at 125 g/ha (hairy beggarticks; Bidens pilosa, post-emergence, Postemergence, 125 g ai/ha, scale 0 to 100, read-out: Plant response rating, Beggarticks): 50%; pest or weed control at 250 g/ha (hairy beggarticks; Bidens pilosa, post-emergence, Postemergence, 250 g ai/ha, scale 0 to 100, read-out: Plant response rating, Beggarticks): 80%; pest or weed control at 16 g/ha (hairy beggarticks; Bidens pilosa, post-emergence, postemergence, 16 g ai/ha, scale 0 to 100, 0 no effect, 100 complete control, read-out: Plant response rating, Beggarticks): 10%
FC(F)(F)c1cnn(-c2ccccc2Oc2ncc(Cl)cn2)c1 [Compound 16] | 30 | 80 | 95 | 15 | 30 | 50 | 50 | 30 | Plant response rating, Soybean (soybean; [6]): 95; Plant response rating, Beggarticks (hairy beggarticks; [6]): 60
